Assay results published in patent US20230183207A1 (priority 2020, published 2023).

Columns and labels:
[1] = system: SARS-CoV-2 strains JPN/TY/WK-521 and NCGM-nCoV-05-2N; assay: microbe, parasite or virus in culture; format: cell-based; settings: for IC50: Severe acute respiratory syndrome coronavirus 2, Vero C1008, read-out: IC50 against SARS-CoV-2
[2] = system: SARS-CoV-2; format: cell-based

N=C(N)c1ccc2cc(OC(=O)c3ccc(N=C(N)N)cc3)ccc2c1 [nafamostat]
reasonable effects against SARS-CoV-2 in the assays [1]: none

C=CCn1ccc2c(C(=O)Oc3cncc(Cl)c3)cccc21 [GRL-0820S]
IC50 [1]: 15000 ± 18000 nM
blocking of infectivity, replication and cytopathic effect of SARS-CoV-2 [2]: significantly blocked the infectivity and replication
viral breakthrough [2]: viral breakthrough occurred

CC(=O)Oc1ccccc1C(=O)Nc1ncc([N+](=O)[O-])s1 [nitazoxanide]
reasonable effects against SARS-CoV-2 in the assays [1]: none

O=C(Oc1cncc(Cl)c1)c1cccc2[nH]ccc12 [GRL-0920S]
IC50 [1]: 2800 ± 300 nM
block of infectivity and cytopathic effect of SARS-CoV-2 (FIG. 1) [2]: virtually completely block the infectivity and cytopathic effect
blocking of infectivity, replication and cytopathic effect of SARS-CoV-2 [2]: completely blocked the infectivity, replication, and cytopathic effect

NC(=O)c1ncn([C@@H]2O[C@H](CO)[C@@H](O)[C@H]2O)n1 [ribavirin]
reasonable effects against SARS-CoV-2 in the assays [1]: none

Cc1c(O)cccc1C(=O)N[C@@H](CSc1ccccc1)[C@H](O)CN1C[C@H]2CCCC[C@H]2C[C@H]1C(=O)NC(C)(C)C [nelfinavir]
reasonable effects against SARS-CoV-2 in the assays [1]: none

NC(=O)c1nc(F)c[nH]c1=O [favipiravir]
reasonable effects against SARS-CoV-2 in the assays [1]: none

Cc1cccc(C)c1OCC(=O)N[C@@H](Cc1ccccc1)[C@@H](O)C[C@H](Cc1ccccc1)NC(=O)[C@H](C(C)C)N1CCCNC1=O [lopinavir]
reasonable effects against SARS-CoV-2 in the assays [1]: none

CCN(CCO)CCCC(C)Nc1ccnc2cc(Cl)ccc12 (centres unmarked) [hydroxychloroquine]
reasonable effects against SARS-CoV-2 in the assays [1]: none

CCC(CC)COC(=O)[C@H](C)N[P@](=O)(OC[C@H]1O[C@@](C#N)(c2ccc3c(N)ncnn23)[C@H](O)[C@@H]1O)Oc1ccccc1 [remdesivir]
IC50 [1]: 2600 ± 700 nM
